Data published in patent US7220437B2, “Antiviral and antibacterial activities of extracts from eight plants” (priority 1996, dated 2007).
Values after ≈ are worked out from the molar mass of the structure shown. Structures can show the parent of a compound that is named as a salt. Marks after values point to notes of the source that are not given here. Values belong to the compound of their own block, whether it stands above or below them.

How the values were obtained:
[1] = test system: Staphylococcus aureus; assay: Bacteria growth, tetrazolium-based colorimetry
[2] = test system: Salmonella typhimurium; assay: Bacteria growth, tetrazolium-based colorimetry
[3] = test system: Klebsiella pneumoniae; assay: Bacteria growth, tetrazolium-based colorimetry
[4] = test system: Edwardsiella species; assay: Bacteria growth, tetrazolium-based colorimetry
[5] = test system: PBMCs; assay: Ex vivo effects on culture induced death of PBMCs of AIDS patients; assay type: cell-based, human; conditions: four AIDS patients; noncytotoxic concentrations
[6] = test system: PBMCs
[7] = test system: HIV-1 strain GH3; assay: Anti-HIV cytopathicity, acute infection of M8166 cells; assay type: cell-based; conditions: high multiplicity of infection of 0.11424
[8] = test system: HIV-2 strain GH1; assay: Anti-HIV-2 cytopathicity in Molt 4 clone 8 cells; assay type: cell-based
[9] = Salmonella enterica, TYPHIMURIUM
[10] = Edwardsiella, inoculum 10^1 CID50
[11] = Edwardsiella, inoculum 10^2 CID50
[12] = Edwardsiella, inoculum 10^3 CID50
[13] = MOI 0.018, treatment after 40 mins of virus adsorption

EC50 ([1]; Staphylococcus aureus): < 0.4 mg/L
EC90 ([1]; Staphylococcus aureus): < 0.4 mg/L
EC50 ([1]; inoculum 10^2 CID50): <0.4 mg/L
EC90 ([1]; inoculum 10^2 CID50): <0.4 mg/L
EC50 ([1]; inoculum 10^3 CID50): <0.4 mg/L
EC90 ([1]; inoculum 10^3 CID50): <0.4 mg/L
EC50 [2, 9]: 16 to 32 mg/L
EC90 [2, 9]: 16 to 32 mg/L
EC50 ([2]; inoculum 10^2 CID50): 16 to 32 mg/L
EC90 ([2]; inoculum 10^2 CID50): 16 to 32 mg/L
EC50 ([2]; inoculum 10^3 CID50): 16 to 32 mg/L
EC90 ([2]; inoculum 10^3 CID50): 16 to 32 mg/L
EC50 ([3]; Klebsiella pneumoniae): < 1 mg/L
EC90 ([3]; Klebsiella pneumoniae): < 1 mg/L
EC50 [4, 10]: 63 mg/L
EC90 [4, 10]: 63 to 125 mg/L
EC50 [4, 11]: 63 mg/L
EC90 [4, 11]: 500 mg/L
EC50 [4, 12]: > 500 mg/L
EC90 [4, 12]: > 500 mg/L
SMILES: [H]/N=C(/N)N[C@H]1[C@H](O)[C@@H](O)[C@H](O[C@@H]2O[C@@H](C)[C@](O)(C=O)[C@H]2O[C@@H]2O[C@@H](CO)[C@H](O)[C@@H](O)[C@@H]2NC)[C@@H](N/C(N)=N\[H])[C@@H]1O [Streptomycin sulfate, streptomycin sulfate]

SMILES: OC[C@@H]1CC[C@H](n2cnc3c(O)ncnc32)O1 [ddino, 2′,3′-dideoxyinosine]
accelerated culture induced death of PBMCs from AIDS patients [5]: effective in these patients except one AIDS patient

SMILES: Nc1ccn([C@H]2CC[C@@H](CO)O2)c(=O)n1 [ddCyd, 2′,3′-dideoxycytidine]
accelerated culture induced death of PBMCs from AIDS patients [5]: effective in these patients except one AIDS patient
toxicity towards PBMCs from the healthy person [6]: no toxicity

EC50 ([8]; MOI 0.018, treatment 2 hrs after virus adsorption): 0.000001 mg/mL (≈ 0.00374 µM)
EC50 [8, 13]: <0.0000003* mg/ml
EC90 [8, 13]: 0.3 mg/L (≈ 1.12 µM)
SMILES: Cc1cn([C@H]2C[C@H](N=[N+]=[N-])[C@@H](CO)O2)c(=O)[nH]c1=O [AZT, 3′-azido-2′,3′-dideoxythymidine]
cell protection [7]: < 90%

EC50 ([1]; inoculum 10^1 CID50): <0.5 mg/L
EC90 ([1]; inoculum 10^1 CID50): <0.5 mg/L
EC50 ([1]; inoculum 10^2 CID50): <0.5 mg/L
EC90 ([1]; inoculum 10^2 CID50): <0.5 mg/L
EC50 ([1]; inoculum 10^3 CID50): 2 mg/L
EC90 ([1]; inoculum 10^3 CID50): 2 to 4 mg/L
EC50 ([2]; inoculum 10^1 CID50): 157 to 314 mg/L
EC90 ([2]; inoculum 10^1 CID50): 0.157–0.314* mg/ml
EC50 ([3]; inoculum 10^2 CID50): 75 mg/L
EC90 ([3]; inoculum 10^2 CID50): 130 mg/L
EC50 ([4]; inoculum 10^1 CID50): 196 to 392 mg/L
EC90 ([4]; inoculum 10^1 CID50): 392 mg/L
EC50 ([4]; inoculum 10^2 CID50): 196 to 392 mg/L
EC90 ([4]; inoculum 10^2 CID50): 392 to 784 mg/L
EC50 ([4]; inoculum 10^3 CID50): >0.784* mg/ml
EC90 ([4]; inoculum 10^3 CID50): >784 mg/L
SMILES: CC1(C)S[C@@H]2[C@H](NC(=O)Cc3ccccc3)C(=O)N2[C@H]1C(=O)[O-].[Na+] [Penicillin G, sodium penicillin G]
